The results in this text go back to patent US20030220363A1, “Use of propionyl L-carnitine for the preparation of a medicament capable of inducing apoptosis” (SIGMA-TAU INDUSTRIE FARMACEUTICHE RIUNITE S.p.A., priority 1998, published 2003).

One assay concerns rat aorta intima. Nature of the assay: Morphometric analysis of intima thickening after mechanical de-endothelialization. Format: in vivo, Wistar rat. The following applies: 15 days after de-endothelialization, PLC 120 mg/Kg or Enalapril 1 mg/Kg p.c. die; for Intima volume/wall (percentage ratio between intima volume and aorta wall volume): ± s.e.m., preliminary results. As for the experimental part: (§1) Wistar male rats, weighing between […], were used for the experiments. The rats were anaesthetised with Nembutal i.p. (35 mg/kg body weight) and the thoracic portion of aorta was submitted to endothelium mechanical removal with Fogarty 2F balloon probe (Baxter USA), according to the Baugartner and Studer method(1966) with minor modification (Orlandi 1994).
(§2) Two groups were subjected to pharmacological treatment with propionyl L-carnitine (PLC, 120 mg/Kg p.c. die), one group was treated with an ACE-inhibitor (Enalapril, 1 mg/Kg p.c. die); the two remaining groups were the control. Moreover, some non-balloonized animals were used as blanks.
The entity of intima thickening after 15 days was evaluated on Verhoeff-Van Gieson stained sections, using a grid overlapped on the image, consisting of 400 points, 1 cm from each other.
The analysis was made on hystological preparates through a Hamamatsu C3077 camera controlled by a Hamamatsu DVS 3000 image analyser and connected to a Polyvar-Reichert microscope. Morphometric evaluation was made at X116 magnification. The following parameters were evaluated a) relative volume of intima referred to arterial wall; b) relative volume of tunica media referred to arterial wall, by counting the overlapping points on the intima and mean tunica.
3-12 aorta sections were used at different level for each animal. This number was a function of the structure sizes, according to Sach's formula, showing the number of fields necessary to obtain a statistically significant sample.

For assay [1], the system named is smooth muscle cells of rat aorta. The assay is described as follows: In vivo proliferation of smooth muscle cells of rat aorta after mechanical de-endothelialization (anti-BrDU positive nuclei). Also noted: species or system Wistar rat. The following applies: for +Nuclei/total nuclei % (anti-bromodeoxyuridine positive): 15 days after de-endothelialization, PLC 120 mg/Kg or Enalapril 1 mg/Kg p.c. die, ± s.e.m., preliminary results. As for the experimental part:
as §1, §2
The animals were sacrificed 3 and 15 days after de-endothelialization. Two hours before sacrifice, all the rats received i.v. a Bromodeoxyuridine solution (BrDU) (45 mg/kg body weight) in order to verify cell proliferation. One hour before sacrifice, some randomly selected animals received 1 ml Blue Evans (1% in 0.9% NaCl solution) in order to evaluate the degree of aorta disruption.
At sacrifice, the animals were anaesthetised with i.p. Nembutal and perfused, after washing with isotonic saline containing 3% Dextran 70, with buffered formalin for 20 minutes. Aortae were isolated, slightly washed in saline and dissected longitudinally. Carotid, heart and small intestine were also excised. All the organs were post-fixed in the same fixative for 24 hours at room temperature.
In order to put in evidence proliferating cells in damaged arteries, serial sections in paraffin of aortae were deparaffined, rehydrated, immersed in a 3% H2O2 solution for 20 minutes and incubated with trypsine (0.05 M in Tris-HCl, pH 7.6) at 37° C. After that, sections were treated with 2N HCl at 37° C. for 30 minutes, washed with 0.1 M sodium tetraborate for 10 minutes, incubated with normal horse serum (Vector) and subsequently with and-BrDU monoclonal antibody (Ylem) for 1 hour. The preparates were then reacted with biotilinated anti-mouse IgG (Vector) and the Streptoavidine-ABC-POD complex (Ylem).
The reaction was evidenced by using diaminobenzidine (DAB) as final chromogen. The count of positive nuclei for BrDU was made on the total number of nuclei. Such count was blind-made by two researchers separately. The difference between the two counts was always lower than 0.5%.
All data were analysed with the T Student's test. The differences between the groups were considered to be significant for P<0.05.

Another assay relates to U266, multiple myleopma. The assay is described as follows: Inhibition of proliferation of neoplastic cells (Trypan Blue count), U266. Format: cell-based, human. As for the experimental part:
(§3) Human derived neoplastic cell, obtained from Istituto Zooprofilattico of Brescia, were cultivated. The cells used for the experiment were: U266, multiple myleopma, HeLa, uterine cervix tumor, K562, chronic myeloid leukemia cells. HeLa and K562 were cultivated in RPMI+10% FCS, while those of U266 line were cultivated in RPMI+15% FCS, both media containing Penicilline/Streptomycine (50 U/mL and 50 μg/mL). Cells were plated in 6-wells plates (Falcon). Analysis were performed in cells having 50% confluence.
(§4) Each cell line was treated with PCL according to the folowing schemes:
(§5) a) 1 mM PLC for 24 hours (FIGS. 1-3); 1 mM PLC for 48 hours (FIGS. 1-3);
[…] 4-6).
(§6) At the end of each treatment, cells were counted in Burker chamber in the presence of Trypan Blue 0.5%, diluted 1:2. Count was made for each experimental group on samples coming from three wells.

For assay [2], the system named is SMC isolated from normotensive rats (WKY). Nature of the assay: Apoptotic cell count after Hoechst 33258 staining, WKY SMC. It counts as cell-based, rat. As for the experimental part:
(§7) In vitro experiments were carried out to evaluate the effect of propionyl L-carnitine (PLC) on smooth muscular cells (SMC) isolated from aortae of spontaneously hypertensive rats (SHR) and, as control, on SMC isolated from normotensive rats (WKY).
(§8) As a further characterisation of smooth muscular cells in the presence of PLC, the percentage of apoptotic cells was measured both in basal conditions and in oxidative stress conditions. Apoptosis evaluation was carried out by counting the number of apoptotic cells present on a total of 1000 cells, after specific DNA staining with Hoechst 33258.
In WKY cultures, apoptosis percentage is negligible (tab. 6)

Assay [3] concerns K562, chronic myeloid leukemia cells. Nature of the assay: Inhibition of proliferation of neoplastic cells (Trypan Blue count), K562. Format: cell-based, human. As for the experimental part: as §3, §4, §5
[…] 4-6).
as §6

In assay [4] the test system is SMC isolated from normotensive rats (WKY). The assay is described as follows: DNA synthesis by tritiated thymidine incorporation, WKY SMC. It counts as cell-based, rat. The following applies: culture day 6. As for the experimental part:
as §7
(§9) These in vitro studies evidenced that PLC, when administered during culture exponential growth phase, reduces cell growth, evaluated as cell number/ml, as well as DNA synthesis, evaluated through incorporation of trititated thymidine (Tab. 4 and 5).
For orientation: Incorporation of labelled thymidine or its analogues reports DNA synthesis.

In assay [5] the test system is HeLa, uterine cervix tumor. The assay is described as follows: Inhibition of proliferation of neoplastic cells (Trypan Blue count), HeLa. It counts as cell-based, human. More on the design: inhibition of proliferation after removal of PLC: dose or concentration left out as unconfirmed. As for the experimental part: as §3, §4, §5
[…] 4-6).
as §6

The subject of assay [6] is smooth muscular cells (SMC) isolated from aortae of spontaneously hypertensive rats (SHR). Nature of the assay: DNA synthesis by tritiated thymidine incorporation, SHR SMC. The following applies: culture day 6. Format: cell-based, rat. As for the experimental part: as §7, §9
In assay [7] the test system is SMC isolated from normotensive rats (WKY). Nature of the assay: Cell growth (cell number/ml) of cultured aortic SMC from WKY. Format: cell-based, rat. As for the experimental part: as §7, §9
In assay [8] the test system is smooth muscular cells (SMC) isolated from aortae of spontaneously hypertensive rats (SHR). The assay is described as follows: Cell growth (cell number/ml) of cultured aortic SMC from SHR. Format: cell-based, rat. As for the experimental part:
as §7, §9

Assay [9] shares this test system. The assay is described as follows: Apoptotic cell count after Hoechst 33258 staining, SHR SMC. It counts as cell-based, rat. As for the experimental part:
as §7, §8

Marks after values point to notes of the source that are not given here.

`CCOC(=O)[C@H](CCc1ccccc1)N[C@@H](C)C(=O)N1CCC[C@H]1C(=O)O` [Enalapril]: the “Reduction (% to CTR) of intima relative volume” value in the assay on rat aorta intima is reported as 26.14%. Besides, in the assay on rat aorta intima, the “Intima volume/wall (percentage ratio between intima volume and aorta wall volume)” value was 21.96 ± 1.20 ^(e) %. The “+Nuclei/total nuclei % (anti-bromodeoxyuridine positive)” value in [1] (intima tunica) is given as “No significant differences”; in assay [1] (intima tunica, listed as enalapril) it was 2.43 ± 0.39 (c) %; in assay [1] (tunica media), “No significant differences”; in [1] (tunica media, listed as enalapril), 0.27 ± 0.09%.
For `CCC(=O)O[C@H](CC(=O)[O-])C[N+](C)(C)C` [PLC, propionyl L-carnitine], the “inhibition of proliferation with respect to the control” value in the assay with U266, multiple myleopma (U266, 1 mM PLC for 24 hours) is recorded as 46%; in the assay on U266, multiple myleopma (U266, 1 mM PLC for 48 hours) it was 26%; in assay [3] (K562, 1 mM PLC for 24 hours), 37%; in assay [3] (K562, 1 mM PLC for 48 hours), 39%; in [5] (1 mM PLC for 24 hours), 25%; in assay [5] (1 mM PLC for 48 hours) it was 17%. Moreover, the “inhibition of proliferation after removal of PLC” value in the assay on U266, multiple myleopma (U266, 24 hours with 1 mM PLC, then fresh medium without the substance) stood at 26%; in assay [3] (K562, 24 hours with 1 mM PLC, then fresh medium without the substance), 21%; in assay [5] (24 hours PLC, then fresh medium without the substance), 20%. For the same compound, the apoptotic cell percentage in assay [2] (basal conditions) is listed as 0%; in assay [2] (oxidative stress), 2%; in [9] (basal conditions), 2%; in [9] (oxidative stress) it was 10%. Also, the results for the tritiated thymidine incorporation in [4] and in assay [6] were 2.56E−05 μCi/μgDNA and 1.81E−05 μCi/μgDNA, respectively. Also, in the assay with rat aorta intima, the “Reduction (% to CTR) of intima relative volume” value is given as 31.11%. Further, the “Intima volume/wall (percentage ratio between intima volume and aorta wall volume)” value in the assay with rat aorta intima was 20.48 ± 2.73 ^(d) %. The cell number/ml in [7] (culture day 2) is recorded as 3*10^4 ± 2 /ml; in [7] (culture day 3), 4*10^4 ± 2 /ml; in [7] (culture day 4) it was 6*10^4 ± 2 /ml; in assay [7] (culture day 6) it was 8*10^4 ± 3 /ml; in assay [8] (culture day 2), 7*10^4 ± 4 /ml; in assay [8] (culture day 3), 4*10^4 ± 2 /ml. Moreover, the values for the cell number/ml in assay [8] (culture day 4) and in assay [8] (culture day 6) were 7*10^4 ± 4 /ml and 20*10^4 ± 5 /ml, respectively. Further, the “Reduction % of BrDU-positive nuclei against control” value in [1] (tunica media, 3 days after de-endothelialization, PLC 120 mg/Kg p.c. die) came to 59.3%. For the same compound, the “positive nuclei/total nuclei % (anti-bromodeoxyuridine positive)” value in assay [1] (tunica media, 3 days after de-endothelialization, PLC 120 mg/Kg p.c. die, ± s.e.m) is reported as 2.59 ± 0.56%.
